These results are taken from US20050215531A1, “Use of edg receptor binding agents in cancer” (priority 2002, published 2005).

Molecules are shown by their SMILES.

Assay type in all cases: cell-based, human
Assay [1] has as its system ERK½ MAP kinases. Nature of the assay: Western blot, activation of ERK½ MAP kinases in HUVEC. Conditions: HUVEC. The method, then: (§1) Human umbilical vein endothelial cells (HUVEC) are cultured at 37° C. and 5% CO2 in medium M199 supplemented with 20% SCS (HyClone, Logan, Utah), 1 U/ml heparin, 50 μg/ml ECGS, 2 mM glutamine, 100 U/ml penicillin and 0.1 mg/ml streptomycin. Cells are used for experiments up to passage number 5. Short-starved HUVEC are obtained by starving with 1% SCS-containing M199 for 5 h. Recombinant human VEGF165 is obtained from PromoCell (Heidelberg, Germany). Phospho-specific ERK½, p3B kinase polyclonal antibodies, nonphospho ERK½ antibodies and LumiGLO chemiluminescent reagent are from New England BioLabs (Beverly, Mass.), polyclonal IKB antibodies from Santa Cruz Biotechnology (Santa Cruz, Calif.). Peroxidase-conjugated donkey anti-rabbit immunoglobulin G (IgG) and sheep anti-mouse IgG are purchased from Amersham LIFE SCIENCE (Amersham Place, England). lmmobilon-P transfer membranes are products of Millipore (Bedford, Mass.). S is obtained from Sigma Chemical Co.; S1P is from Biomol. Compound A-phosphate stock solution is prepared by the following protocol. Compound A-phosphate is dissolved in methanol tracing with concentrated HCl (0.5 mg Compound A-phosphate in 500 μl of methanol plus 2 μl of HCl). Solvent from the resulting solution is evaporated under vacuum and the residue obtained is redissolved (variant 1) in 0.1% of defatted BSA solution in sterile deionized water (500 μl) or (variant 2) in 0.5% Triton X-100 in deionized water. The resulting stock solutions (2.5 mM) are sonicated and stored at 4° C.
After various treatments, the cells are washed twice with cold PBS, lysed in 100 μl of Laemmli buffer, scraped and heated for 5 min at 95° C. Total cell lysates are separated by SDS-PAGE and transferred to Immobilon-P membrane. The membrane is blocked for 30 minutes with PBS containing 0.1% Tween-20 and 3% skim milk and incubated for 1 hour at RT with a primary antibody diluted in blocking buffer. The membrane obtained is washed three times for 5 minutes with PBS containing 0.1% Tween-20 and incubated with peroxidase-conjugated secondary antibody for 1 hour at RT. After a washing step, the membrane is incubated for 1 minute with ECL reagent and exposed to film as required. For reprobing with another antibody, the membrane is washed twice in PBS, stripped for 30 min at 55° C. with stripping buffer (62.5 mM Tris-HCL, pH 6.8, 2% SDS, 100 mM 2-mercaptoethanol) and washed three times for 5 minutes with PBS at RT. The membrane is stored wet wrapped in SaranWrap at 4° C. after each immunodetection.
Signal transduction via MAP idnases plays a key role in a variety of endothelial cell functions. Treatment of HUVEC with Compound A-phosphate at 0.5 μM may result in transient activation of ERK½ with a peak of phosphorylation/activation at 10 minutes and returning to baseline by 20 minutes (see e.g. FIG. 5). No activation of p38 kinase and JNK½ by Compound A-phosphate is detectable in HUVEC. […] To estimate the possible role of inflammatory/NFκB-dependent program in Compound A-phosphatestimulated bioresponses of endothelial cells, the membranes are reprobed with anti-IκB antibodies. IκB levels are not affected by Compound A-phosphate treatment.

For assay [2], the system named is JNK½. Kind of assay: Western blot, JNK½ activation in HUVEC. The method, then: as §1, with “Solvent from the resulting solution is evaporated under vacuum and the residue obtained is redissolved (variant 1) in 0.1% of defatted BSA solution in sterile deionized water (500 μl) or (variant 2) in 0.5% Triton X-100 in deionized water. The resulting stock solutions (2.5 mM) are sonicated and stored at 4° C.” left out
(In general: A western blot detects proteins with antibodies after separation by electrophoresis.)

Assay [3] concerns IκB. Kind of assay: Western blot reprobed with anti-IκB antibodies (NFκB-dependent program). The conditions noted are these: endothelial cells. As for the experimental part:
as §1, with “Solvent from the resulting solution is evaporated under vacuum and the residue obtained is redissolved (variant 1) in 0.1% of defatted BSA solution in sterile deionized water (500 μl) or (variant 2) in 0.5% Triton X-100 in deionized water. The resulting stock solutions (2.5 mM) are sonicated and stored at 4° C.” left out

Assay [4] has as its system HUVEC. Nature of the assay: S1P-mediated HUVEC tube formation assay. Conditions: branching points in 3 independent fields at 4× magnification. The method, then:
For the tube formation assay, HUVEC from passage 2-8 are used and are never greater than 70% confluent before harvesting. Cells are prepared for the assay by washing with Herpes Balanced Saline Solution (HBSS from Clonetics) and then trypsinizing with Trypsin/EDTA (0.25 mg/ml, from Clonetics). After approximately 90% of the cells have lifted off the plate, an equal volume of Trypsin Neutralizing Solution (TNS from Clonetics) is added and the cells are collected into a conical tube containing at least 10 ml of EBM-2 (Clonetics)+0.1% BSA (Sigma) media Cells are centrifuged at 1000 rpm for 5 minutes and the supematant is removed and replaced with 5 ml of fresh EBM-2+0.1% BSA. Cells are counted using a hemacytometer and the volume of the cell suspension is adjusted to achieve a concentration of 500,000 cells/ml. Conical tubes are prepared with test compounds at 100 nM, and pertussin toxin (PTx) at 10 ng/ml in each, then 1 ml of the cell suspension is added to each tube. Tubes are then incubated for ½ hour at 37° C., 5% CO2. The migration assay is performed using Fluoro-Blok 24-Multiwell insert Plates coated with fibronectin (8 μm pore size, Falcon #351147) instead of the individual inserts in a 24-well plate. Cells and test compounds are prepared and pre-incubated as described above, then 100 μl is added to each approriate well in the Insert Plate. 300 μl of the EBM-2+2% charcoastripped media without S1P is added to the bottoms of the wells marked for no stimulation (−), and 300 μl of the media containing S1P (500 nM) is added to the bottoms of the wells marked for stimulation (+). The plate is then incubated for 4 hours at 37° C., 5% CO2. […]
After incubation, the plate is read on a Cytofluor II at an excitation of 485 nm and emission of 530 nm. The Fluoro-Blok coating in the inserts allows only the cells that have migrated to the bottom to be counted. […]
Tube formation is quantitated by counting the number of branching points (two independent cords connecting) in 3 independent fields at 4× magnification.

For the compound `CCCCCCCCc1ccc(CCC(N)(CO)COP(=O)(O)O)cc1` (stereo not shown) [Compound A-phosphate], the “time of ERK½ activation returning to baseline” value in assay [1] (0.5 μM) was no more than 20 min. Further, the “time of peak of ERK½ phosphorylation/activation” value in assay [1] (0.5 μM, transient activation) was found to be 10 min. Further, the “ERK½ activation, dose dependence” value in assay [1] (0.5 versus 2 μM) is on record as “dose-dependent manner, showing stronger activity at 2 μM”. Also, the “activation of JNK½” value in assay [2] is recorded as “No activation”. Further, the IκB levels entry in assay [3] is reported as “not affected”. The results for the “Branching Points” value in assay [4] (treatment + S1P) and in assay [4] (treatment alone) were 14 ± 7 and 48 ± 15, respectively.
